This note sets out measurements from the NIST ThermoML archive (doi:10.1016/j.jct.2006.05.001).

± gives the expanded uncertainty stated by the source.

The term refractive index denotes a measure of how strongly the sample bends light. Broadly, the mass density is mass per unit of volume.

Data set [1] can be described thus: refractive index (Na D-line) (dimensionless). As to conditions: 293.15 K; 101.33 kPa; Liquid; Standard Abbe refractometry.
The conditions of data set [2]: Liquid; for mass density: 101.33 kPa; for Normal boiling temperature: Distillation.

As to `CCCCCCCCCCO` [decan-1-ol], the refractive index in data set [1] is on record as 1.4373 ± 0.0008. For the same compound, the mass density in data set [2] (293.15 K) was determined as 829.5 ± 0.94 kg/m3. Besides, the Normal boiling temperature in data set [2] came to 230.6 ± 0.5 °C.
As for `CCCCCCCCCCCCO` [dodecan-1-ol], the mass density in data set [2] (297.15 K) amounted to 830.8 ± 1.5 kg/m3. Further, in data set [2], the Normal boiling temperature amounted to 259.4 ± 0.5 °C.
As to `CCCCCCCCCO` [nonan-1-ol], the refractive index in data set [1] is 1.4335 ± 0.0008. Besides, the mass density in data set [2] (293.15 K) is reported as 828.5 ± 1.7 kg/m3. Moreover, in data set [2], the Normal boiling temperature was 215.2 ± 0.5 °C.
For `CCCCCCCCO` [octan-1-ol], the refractive index in data set [1] is given as 1.4292 ± 0.0008. Moreover, in data set [2] (298.15 K), the mass density is reported as 826.25 ± 0.95 kg/m3. Further, the Normal boiling temperature in data set [2] was 195 ± 0.5 °C.
For `CCC(=O)O` [propanoic acid], in that order: 1.3808 ± 0.0008, 988.04 ± 0.53 kg/m3 and 141.4 ± 0.5 °C.
